Laboratory results reported in patent publication US20240216369A1, “THE USE OF A SPLICING MODULATOR FOR A TREATMENT SLOWING PROGRESSION OF HUNTINGTON'S DISEASE” (Novartis AG, priority 2019, published 2024).

Tests used:
mHTT = experiment: Mutant and total HTT multiplex HTRF assay in Q48 HTT human embryonic stem cell line: mHTT; type: cell-based; details: Q48 HTT hESC, 48 hours
Procedure: (§1) The multiplex assay is performed in human embryonic stem cells (hESCs) which have been derived by Genea Biocells from human blastocysts of HD donors. Cells are plated at a density of 10,000 cells/well into 384-well collagen coated plates and left to adhere for 24 hours, compounds 1 to 82 are then added to cells and incubated for 48 hours (37° C., 5% CO2), cells are then lysed and the contents split into a black 384-well plate.
(§2) The black plates have a combination of HTRF labeled monoclonal antibodies added which recognize discrete areas of the HTT protein, the 2B7-Tb “donor” antibody (0.2 ng/well) recognizes a sequence at the N-terminus of the protein, an MW1-Alexa488 “acceptor 1” antibody (30 ng/well) recognizes an area in the polyQ region, whereas a MAB2166-d2 “acceptor 2” antibody (6 ng/well) recognizes a sequence beyond the polyQ region. The 2B7 antibody was obtained from Coriell (CH02024), the MW1 antibody from Millipore (MABN2427), and the MAB2166 antibody from Millipore (1HU-4C8).
(§3) These detection reagents are incubated with the cell lysate at room temperature for 4-6 hours before having their fluorescence quantified at 615 nm (donor) and 535 nm and 665 nm (acceptor 1 and 2 respectively). The donor/acceptor ratio between these signals indicates the relative quantities of mHTT and tHTT proteins. As shown in the Table 1, compounds 1 to 82 as described therein and in Table 2, had the following pIC50 values.

tHTT = experiment: Mutant and total HTT multiplex HTRF assay in Q48 HTT human embryonic stem cell line: tHTT; type: cell-based; details: Q48 HTT hESC, 48 hours
Procedure: as §1, §2, §3

## CC1(C)CC(Nc2ccc(-c3cc4cc(C#N)ccc4s3)nn2)CC(C)(C)N1 [Compound 48, 2-(6-(2,2,6,6-tetramethylpiperidin-4-ylamino)pyridazin-3-yl)benzo[b]thiophene-5-carbonitrile]
mHTT
  Rating (based on mHTT potency): *** (a pIC50 value between 6.5 and 7.0 is indicated by three stars (***))
  mHTT pIC50: 6.822
tHTT
  tHTT pIC50: 6.9

## CN(c1ccc(-c2ccc(-c3ccn(C)c(=O)c3)cc2O)nn1)C1CC(C)(C)NC(C)(C)C1 [Compound 5, 4-(3-hydroxy-4-(6-(methyl(2,2,6,6-tetramethylpiperidin-4-yl)amino)pyridazin-3-yl)phenyl)-1-methylpyridin-2(1H)-one]
mHTT
  Rating (based on mHTT potency): ***** (a pIC50 value above 7.5 is indicated by five stars (*****))
  mHTT pIC50: 7.591
tHTT
  tHTT pIC50: 7.5935

## CN(c1nnc(-c2ccc(-c3cn[nH]c3)cc2F)s1)C1CC(C)(C)NC(C)(C)C1 [Compound 76, 5-(2-fluoro-4-(1H-pyrazol-4-yl)phenyl)-N-methyl-N-(2,2,6,6-tetramethylpiperidin-4-yl)-1,3,4-thiadiazol-2-amine]
mHTT
  Rating (based on mHTT potency): ** (a pIC50 value between 6 and 6.5 is indicated by two stars (**))
  mHTT pIC50: 6.0645
tHTT
  tHTT pIC50: 6.075

## Oc1cc(-c2cn[nH]c2)cc(F)c1-c1nnc(N2CC3(CCNCC3)C2)s1 [Compound 36, 2-(5-(2,7-diazaspiro[3.5]nonan-2-yl)-1,3,4-thiadiazol-2-yl)-3-fluoro-5-(1H-pyrazol-4-yl)phenol]
mHTT
  Rating (based on mHTT potency): *** (a pIC50 value between 6.5 and 7.0 is indicated by three stars (***))
  mHTT pIC50: 6.996
tHTT
  tHTT pIC50: 6.827

## CCOc1cc(C)nc2cc(O)c(-c3ccc(N(C)C4CC(C)(C)NC(C)(C)C4)nn3)cc12 [Compound 63, 4-ethoxy-2-methyl-6-(6-(methyl(2,2,6,6-tetramethylpiperidin-4-yl)amino)pyridazin-3-yl)quinolin-7-ol]
mHTT
  Rating (based on mHTT potency): *** (a pIC50 value between 6.5 and 7.0 is indicated by three stars (***))
  mHTT pIC50: 6.63
tHTT
  tHTT pIC50: 6.534

## CN(c1ccc(-c2cc3c(cc2O)C(=O)CC3)nn1)C1CC(C)(C)NC(C)(C)C1 [Compound 66, 6-hydroxy-5-(6-(methyl(2,2,6,6-tetramethylpiperidin-4-yl)amino)pyridazin-3-yl)-2,3-dihydro-1H-inden-1-one]
mHTT
  Rating (based on mHTT potency): *** (a pIC50 value between 6.5 and 7.0 is indicated by three stars (***))
  mHTT pIC50: 6.5815
tHTT
  tHTT pIC50: 6.637

## Cc1cc2cc(O)c(-c3ccc(N(C)C4CC(C)(C)NC(C)(C)C4)nn3)cc2c(C)n1 [Compound 11, 1,3-dimethyl-7-(6-(methyl(2,2,6,6-tetramethylpiperidin-4-yl)amino)pyridazin-3-yl)isoquinolin-6-ol]
mHTT
  Rating (based on mHTT potency): **** (a pIC50 value between 7.0 and 7.5 is indicated by four stars (****))
  mHTT pIC50: 7.3875
tHTT
  tHTT pIC50: 7.3965

## Oc1ccc2cc(-c3ccc(C4CCNCC4)nn3)c(O)cc2c1 [Compound 71, 3-(6-(piperidin-4-yl)pyridazin-3-yl)naphthalene-2,7-diol]
mHTT
  Rating (based on mHTT potency): * (a pIC50 value between 5 and 6 is indicated by a single star (*))
  mHTT pIC50: 5.996
tHTT
  tHTT pIC50: 5.997

## CC1CC(Oc2ccc(-c3ccc(-c4cn[nH]c4)cc3O)nn2)CC(C)N1 (stereo not drawn) [Compound 69, 2-(6-((2,6-dimethylpiperidin-4-yl)oxy)pyridazin-3-yl)-5-(1H-pyrazol-4-yl)phenol]
mHTT
  Rating (based on mHTT potency): **** (a pIC50 value between 7.0 and 7.5 is indicated by four stars (****))
  mHTT pIC50: 7.1525
tHTT
  tHTT pIC50: 7.089

## CN(c1ccc(-c2ccc(C3=CCNCC3)cc2O)nn1)C1CC(C)(C)NC(C)(C)C1 [Compound 61, 2-(6-(methyl(2,2,6,6-tetramethylpiperidin-4-yl)amino)pyridazin-3-yl)-5-(1,2,3,6-tetrahydropyridin-4-yl)phenol]
mHTT
  Rating (based on mHTT potency): *** (a pIC50 value between 6.5 and 7.0 is indicated by three stars (***))
  mHTT pIC50: 6.661
tHTT
  tHTT pIC50: 6.659

## COc1ccc(-c2ccc(-c3ccc(N(C)C4CC(C)(C)NC(C)(C)C4)nn3)c(O)c2)cn1 [Compound 67, 5-(6-methoxypyridin-3-yl)-2-(6-(methyl(2,2,6,6-tetramethylpiperidin-4-yl)amino)pyridazin-3-yl)phenol]
mHTT
  Rating (based on mHTT potency): *** (a pIC50 value between 6.5 and 7.0 is indicated by three stars (***))
  mHTT pIC50: 6.547
tHTT
  tHTT pIC50: 6.452

## Cc1nc2cc(O)c(-c3ccc(N(C)C4CC(C)(C)NC(C)(C)C4)nn3)cc2nc1C [Compound 42, 2,3-dimethyl-7-(6-(methyl(2,2,6,6-tetramethylpiperidin-4-yl)amino)pyridazin-3-yl)quinoxalin-6-ol]
mHTT
  Rating (based on mHTT potency): *** (a pIC50 value between 6.5 and 7.0 is indicated by three stars (***))
  mHTT pIC50: 6.92
tHTT
  tHTT pIC50: 6.885

## CN1C[C@@H]2CN(c3ccc(-c4ccc(-c5cn[nH]c5)cc4O)nn3)C[C@@H]2C1 [Compound 32, 2-(6-((3aR,6aS)-5-methylhexahydropyrrolo[3,4-c]pyrrol-2(1H)-yl)pyridazin-3-yl)-5-(1H-pyrazol-4-yl)phenol]
mHTT
  Rating (based on mHTT potency): **** (a pIC50 value between 7.0 and 7.5 is indicated by four stars (****))
  mHTT pIC50: 7.0085
tHTT
  tHTT pIC50: 7.0625

## CCN1CCC(c2cn3c(=O)cc(-c4ccc5nn(C)cc5c4)nc3c(C)n2)CC1 [Compound 44, 7-(1-ethylpiperidin-4-yl)-9-methyl-2-(2-methyl-2H-indazol-5-yl)-4H-pyrazino[1,2-a]pyrimidin-4-one]
mHTT
  Rating (based on mHTT potency): *** (a pIC50 value between 6.5 and 7.0 is indicated by three stars (***))
  mHTT pIC50: 6.869
tHTT
  tHTT pIC50: 6.7695

## CN(c1ccc(-c2c(O)cc(-c3ccn(C)c(=O)c3)cc2F)nn1)C1CC(C)(C)NC(C)(C)C1 [Compound 23, 4-(3-fluoro-5-hydroxy-4-(6-(methyl(2,2,6,6-tetramethylpiperidin-4-yl)amino)pyridazin-3-yl)phenyl)-1-methylpyridin-2(1H)-one]
mHTT
  Rating (based on mHTT potency): **** (a pIC50 value between 7.0 and 7.5 is indicated by four stars (****))
  mHTT pIC50: 7.1895
tHTT
  tHTT pIC50: 7.17

## CN(c1nnc(-c2ccc(-c3cnn(C)c3)cc2O)s1)C1CC(C)(C)NC(C)(C)C1 [Compound 16, 2-(5-(methyl(2,2,6,6-tetramethylpiperidin-4-yl)amino)-1,3,4-thiadiazol-2-yl)-5-(1-methyl-1H-pyrazol-4-yl)phenol]
mHTT
  Rating (based on mHTT potency): **** (a pIC50 value between 7.0 and 7.5 is indicated by four stars (****))
  mHTT pIC50: 7.3285
tHTT
  tHTT pIC50: 7.481

## CN(c1ccc(-c2cc3ccccc3cc2O)nn1)C1CC(C)(C)NC(C)(C)C1 [Compound 41, 3-(6-(methyl(2,2,6,6-tetramethylpiperidin-4-yl)amino)pyridazin-3-yl)naphthalen-2-ol]
mHTT
  Rating (based on mHTT potency): *** (a pIC50 value between 6.5 and 7.0 is indicated by three stars (***))
  mHTT pIC50: 6.923
tHTT
  tHTT pIC50: 6.8125

## COc1cc(-c2cn[nH]c2)cc(O)c1-c1ccc(N(C)C2CC(C)(C)NC(C)(C)C2)nn1 [Compound 58, 3-methoxy-2-(6-(methyl(2,2,6,6-tetramethylpiperidin-4-yl)amino)pyridazin-3-yl)-5-(1H-pyrazol-4-yl)phenol]
mHTT
  Rating (based on mHTT potency): *** (a pIC50 value between 6.5 and 7.0 is indicated by three stars (***))
  mHTT pIC50: 6.698
tHTT
  tHTT pIC50: 6.6555

## Cc1cc2cc(O)c(-c3ccc(N(C)C4CC(C)(C)NC(C)(C)C4)nn3)cc2cn1 [Compound 30, 3-methyl-7-(6-(methyl(2,2,6,6-tetramethylpiperidin-4-yl)amino)pyridazin-3-yl)isoquinolin-6-ol]
mHTT
  Rating (based on mHTT potency): **** (a pIC50 value between 7.0 and 7.5 is indicated by four stars (****))
  mHTT pIC50: 7.08
tHTT
  tHTT pIC50: 7.0835

## CNc1ccn(-c2ccc(-c3nnc(N(C)C4CC(C)(C)NC(C)(C)C4)s3)c(O)c2)n1 [Compound 43, 2-(5-(methyl(2,2,6,6-tetramethylpiperidin-4-yl)amino)-1,3,4-thiadiazol-2-yl)-5-(3-(methylamino)-1H-pyrazol-1-yl)phenol]
mHTT
  Rating (based on mHTT potency): *** (a pIC50 value between 6.5 and 7.0 is indicated by three stars (***))
  mHTT pIC50: 6.917
tHTT
  tHTT pIC50: 6.852

## Cc1cnc2cc(-c3ccc(N(C)C4CC(C)(C)NC(C)(C)C4)nn3)c(O)cc2n1 [Compound 38, 3-methyl-7-(6-(methyl(2,2,6,6-tetramethylpiperidin-4-yl)amino)pyridazin-3-yl)quinoxalin-6-ol]
mHTT
  Rating (based on mHTT potency): *** (a pIC50 value between 6.5 and 7.0 is indicated by three stars (***))
  mHTT pIC50: 6.9735
tHTT
  tHTT pIC50: 7.0015

## CN(c1nnc(-c2ccc(-c3ccc(=O)n(C)c3)cc2O)s1)C1CC(C)(C)NC(C)(C)C1 [Compound 6, 5-(3-hydroxy-4-(5-(methyl(2,2,6,6-tetramethylpiperidin-4-yl)amino)-1,3,4-thiadiazol-2-yl)phenyl)-1-methylpyridin-2(1H)-one]
mHTT
  Rating (based on mHTT potency): ***** (a pIC50 value above 7.5 is indicated by five stars (*****))
  mHTT pIC50: 7.585
tHTT
  tHTT pIC50: 7.493
